Target: T1, Or22a/Orco (Drosophila melanogaster, UniProt P81909)
T1 construct: his-tag; made in house; host or cells: baculovirus-infected Sf9 cells
T1 sequence (P81909 1-397): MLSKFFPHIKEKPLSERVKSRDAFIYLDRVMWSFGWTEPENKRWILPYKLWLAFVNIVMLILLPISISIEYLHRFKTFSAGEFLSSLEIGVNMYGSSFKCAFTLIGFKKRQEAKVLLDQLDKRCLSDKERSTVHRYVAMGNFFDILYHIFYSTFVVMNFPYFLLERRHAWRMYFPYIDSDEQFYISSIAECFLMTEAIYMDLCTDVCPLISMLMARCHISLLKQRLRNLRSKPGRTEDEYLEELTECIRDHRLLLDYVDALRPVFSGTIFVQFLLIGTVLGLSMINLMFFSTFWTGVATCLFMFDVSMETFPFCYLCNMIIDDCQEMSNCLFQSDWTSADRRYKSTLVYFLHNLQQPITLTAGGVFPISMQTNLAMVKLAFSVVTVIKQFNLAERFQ
T1 sequence (Q9VNB5 1-486 partner): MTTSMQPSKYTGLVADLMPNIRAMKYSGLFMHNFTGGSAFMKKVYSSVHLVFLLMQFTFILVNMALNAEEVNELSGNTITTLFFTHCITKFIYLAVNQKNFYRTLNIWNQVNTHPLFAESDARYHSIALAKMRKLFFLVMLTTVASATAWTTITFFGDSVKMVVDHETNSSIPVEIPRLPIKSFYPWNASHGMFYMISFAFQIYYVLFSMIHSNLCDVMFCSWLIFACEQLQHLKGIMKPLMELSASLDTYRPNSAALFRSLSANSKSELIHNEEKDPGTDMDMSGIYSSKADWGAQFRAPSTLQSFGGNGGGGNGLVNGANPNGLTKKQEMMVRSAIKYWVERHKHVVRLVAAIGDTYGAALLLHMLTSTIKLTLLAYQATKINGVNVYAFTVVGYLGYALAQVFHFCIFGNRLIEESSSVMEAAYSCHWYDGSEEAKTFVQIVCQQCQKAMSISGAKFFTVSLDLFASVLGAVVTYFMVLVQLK
Assay: EIS sensor, Or22a/Orco liposomes on gold electrode
Assay type: biochemical
Method: Prior to their use, liposomes were defrosted on ice and then destabilized by incubating with 0.2% CHAPS for 15 min at room temperature. Then 200 μg of purified odorant receptor^28 was added to 1 mg of liposomes and rotated at 10 rpm for 1 h at room temperature. Excess detergent was removed by four additions of 25 mg of Bio-Beads SM-2 (Bio-Rad, USA) and incubation at 4° C. for 30 min, 2 h, overnight and a further 2 h respectively. The Bio-Beads were removed after each incubation period. The OrX or OrX/Orco integrated liposomes were pelleted by centrifugation at 100,000 g for 1 h, and were resuspended in 500 μL of rehydration buffer. Integration of OrXs and Orco into liposomes was assessed by density gradient ultracentrifugation (DGU) using Accudenz (Accurate Chemical & Scientific Corporation, USA). The integrated liposomes were brought to 40% Accudenz by the addition of an equal volume of 80% Accudenz solution, placed at the bottom of an ultra-centrifugation tube, and overlaid with 30% Accudenz solution, and DGU buffer (25 mM HEPES pH 7.5, 100 mM NaCl, 10% glycerol). The sample was then centrifuged at 100,000 g for 4 h at 4° C. Liposomes will float to the top of the gradient after Accudenz DGU due to their low density.
2 mM MHA was prepared by dissolving 1.36 μl of MHA in 5 ml ethanol (AR grade). The cleaned electrodes were immersed into MHA solution and incubated overnight. The next day, all the electrodes were washed with ethanol and deionised water thoroughly in order to remove the unreacted acid. A 2:1 mol:mol ratio of EDC:NHS (100 mM EDC, 50 mM NHS) was prepared in 2 ml PBS (pH=6.5) solution. Then, the electrodes were covered in 100 μl of this solution at 28° C. for an hour to activate the carboxylic (COOH) groups of the MHA.
PBS solution was prepared by immersing one tablet of PBS in 200 ml of milli-Q water (according to manufacturers instructions) and filtered using 0.2-μm syringe filter. The pH of the prepared buffer solution was measured with a pH meter. […]

In the case of `CCCCCC(=O)OC` [methyl hexanoate], the limit of detection (EIS dose response, ligand 1 aM to 100 μM) is reported as 0.1 fM, the Sensitivity limit (Table 1, * estimated visually from dose response graph) is reported as ~10^−16 M* and the “Detection Range” value (Table 3) is reported as 10^−16-10^−5 M.

— patent publication US20210255184A1, “Biosensor Device and Methods” (The New Zealand Institute for Plant and Food Research …, priority 2018, published 2021)
